Reference: US4385112A (priority 1980, dated 1983)

How the values were obtained:
Assay type in all cases: biochemical, Pseudomonas putida B-0781
[1] = tested on: nucleoside oxidase; assay: Substrate specificity: relative enzymatic activity on various substrates; conditions: substrate each 1 mM concentration
Experimental: Relative enzymatic activities on various substrates (nucleoside, nucleic acid base, sugar, and nucleotide, each 1 mM concentration) shown in Table 1 were measured.
A reaction mixture (0.5 ml) consisting of 0.2 M dimethylglutarate-NaOH buffer (pH 6.0) 0.2 ml, 0.2 w/w% N,N-diethyl-m-toluidine 0.05 ml, 0.3 w/w% 4-aminoantipyrine 0.05 ml, 10 mM adenosine 0.05 ml and distilled water 0.10 ml was pre-incubated at 37° C. for 3 minutes. After adding enzyme solution (20 μl), the mixture was incubated at 37° C. for 10 minutes, and 0.5 ml of 4 M urea solution containing 0.2% cetylpyridiniumchloride was added to stop the reaction. […] Then the enzyme solution was replaced by distilled water (20 μl) as a control (AB).
(§1) Enzymatic activity should be measured within the value of As below 0.15.
One unit (1 U.) of enzyme activity is that amount of enzyme such that 1μ mole of hydrogen peroxide is generated in one minute at 37° C. with adenosine as substrate, and represented by the following equation: […]

[2] = tested on: nucleoside oxidase; assay: Effect of metal ions on enzyme activity (Table 2); set-up: concentration or dose not given beside the values; conditions: control 100; 10 min
Experimental: as §1
(§2) One unit (1 U.) of enzyme activity is that amount of enzyme such that 1μ mole of hydrogen peroxide is generated in one minute at 37° C. with adenosine as substrate, and represented by the following equation:
(§3) Enzyme activity (U/ml)=1.25×(As-AB)×dilution ratio.

[3] = tested on: nucleoside oxidase; assay: Km value of the enzyme; conditions: for adenosine
Experimental: as §1, §2, §3

[4] = tested on: nucleoside oxidase; assay: Amount of oxygen consumption and hydrogen peroxide generation in the reaction
Experimental: The amount of consumed oxygen (measured by an oxygen electrode) and generated hydrogen peroxide (colorimetric assay at 545 nm) were measured. Results: adenosine 0.05μ mole; consumed oxygen 0.097μ mole; and generated hydrogen peroxide 0.101μ mole.

[5] = tested on: nucleoside oxidase; assay: Effect of surface active agent on enzyme activity (Table 3); conditions: 0.1 w/w % surface active agent; None 100
Experimental: as §1, §2, §3

Relative activity [1] | Compound | further results
0% | Nc1ncnc2c1ncn2[C@@H]1O[C@H](COP(=O)(O)O)[C@@H](O)[C@H]1O [5'-AMP] | 
0% | Nc1ccn([C@@H]2O[C@H](COP(=O)(O)O)[C@@H](O)[C@H]2O)c(=O)n1 [5'-CMP] | 
0% | O=c1[nH]c(=O)c2ncn([C@@H]3O[C@H](COP(=O)(O)O)[C@@H](O)[C@H]3O)c2[nH]1 [5'-XMP] | 
0% | O=C[C@H](O)[C@H](O)[C@H](O)CO [D-ribose] | 
0% | Nc1ncnc2nc[nH]c12 [adenine] | 
48.2% | NC(=O)c1ncn([C@@H]2O[C@H](CO)[C@@H](O)[C@H]2O)c1O [bredinine, 4-carbamoyl-1-D-ribofuranosylimidazolium-5-olate, reference compound] | 
65.7% | Nc1ccn([C@@H]2O[C@H](CO)[C@@H](O)[C@H]2O)c(=O)n1 [cytidine] | 
91.4% | OC[C@H]1O[C@@H](n2cnc3c(O)ncnc32)[C@H](O)[C@@H]1O [inosine] | 
0% | O=c1cc[nH]c(=O)[nH]1 [uracil] | 

The next lines start with the compound.

Compound | Relative activity [1] | further results
Nc1ncnc2c1ncn2[C@H]1C[C@H](O)[C@@H](CO)O1 [2'-deoxyadenosine] | 99.1% | 
Nc1ncnc2c1ncn2[C@@H]1O[C@H](COP(=O)(O)OP(=O)(O)O)[C@@H](O)[C@H]1O [5'-ADP] | 0% | 
Nc1ncnc2c1ncn2[C@@H]1O[C@H](COP(=O)(O)OP(=O)(O)OP(=O)(O)O)[C@@H](O)[C@H]1O [5'-ATP] | 0% | 
Nc1nc2c(ncn2[C@@H]2O[C@H](COP(=O)(O)O)[C@@H](O)[C@H]2O)c(=O)[nH]1 [5'-GMP] | 0% | 
O=c1ccn([C@@H]2O[C@H](COP(=O)(O)O)[C@@H](O)[C@H]2O)c(=O)[nH]1 [5'-UMP] | 0% | 
[Ba+2] [Ba^2+] |  | Relative activity [2]: 100%
[Ca+2] [Ca^2+] |  | Relative activity [2]: 102%
[Co+2] [Co^2+] |  | Relative activity [2]: 104%
O=C(O)CN(CCN(CC(=O)O)CC(=O)O)CC(=O)O [EDTA, reference compound] |  | Relative activity [2]: 98%
[Mg+2] [Mg^2++] |  | Relative activity [2]: 104%
[Mn+2] [Mn^2+] |  | Relative activity [2]: 110%
O=C(O)c1cc[c]([Hg][Cl])cc1 [PCMB, reference compound] |  | Relative activity [2]: 102%
[Zn+2] [Zn^2+] |  | Relative activity [2]: 94%
Nc1ncnc2c1ncn2[C@@H]1O[C@H](CO)[C@@H](O)[C@H]1O [adenosine] | 100% | Km [3]: 45 µM; moles of hydrogen peroxide generated per 1 mole of adenosine [4]: 2 mol; moles of oxygen consumed per 1 mole of adenosine [4]: 2 mol; generated hydrogen peroxide ([4]; adenosine 0.05 μ mole, nucleoside oxidase 3 U., colorimetric assay at 545 nm): 0.101 μ mole; consumed oxygen ([4]; adenosine 0.05 μ mole, nucleoside oxidase 3 U., oxygen electrode): 0.097 μ mole
Nc1ncnc2c1ncn2[C@@H]1O[C@H](CO)[C@@H](O)[C@@H]1O [arabinosyladenine, reference compound] | 67.2% | 
Nc1ccn([C@@H]2O[C@H](CO)[C@@H](O)[C@@H]2O)c(=O)n1 [arabinosylcytosine, 1-β-D-arabinofuranosylcytosine, reference compound] | 8.1% | 
CCCCCCCCCCCCCCCC[N+](C)(C)C.[Cl-] [cetyl trimethylammonium chloride] |  | Relative activity [5]: 78%
Nc1nc2c(ncn2[C@@H]2O[C@H](CO)[C@@H](O)[C@H]2O)c(=O)[nH]1 [guanosine] | 97.1% | 
O=c1[nH]cnc2nc[nH]c12 [hypoxanthine] | 0% | 
C[C@H](CCC(=O)O)[C@H]1CC[C@H]2[C@@H]3CC[C@@H]4C[C@H](O)CC[C@]4(C)[C@H]3C[C@H](O)[C@]12C [sodium deoxycholate] |  | Relative activity [5]: 102%
CCCCCCCCCCCCOS(=O)(=O)[O-].[Na+] [sodium dodecyl sulfate] |  | Relative activity [5]: 66%
Cc1cn([C@H]2C[C@H](O)[C@@H](CO)O2)c(=O)[nH]c1=O [thymidine] | 94.3% | 
Cc1c[nH]c(=O)[nH]c1=O [thymine] | 0% | 
O=c1ccn([C@@H]2O[C@H](CO)[C@@H](O)[C@H]2O)c(=O)[nH]1 [uridine] | 94.3% | 
O=c1[nH]c(=O)c2[nH]cnc2[nH]1 [xanthine] | 0% | 
O=c1[nH]c(=O)c2ncn([C@@H]3O[C@H](CO)[C@@H](O)[C@H]3O)c2[nH]1 [xanthosine] | 14.3% | 
O=P(O)(O)O[C@H]1O[C@H](CO)[C@@H](O)[C@H]1O [α-D-ribose-1-phosphate] | 0% | 
Triton X-100 |  | Relative activity [5]: 104%
sodium lauryl benzene sulfonate |  | Relative activity [5]: 38%
